Data from the supplement of paper PMC10307832.

Columns and labels:
Assay in all cases: relative viability (nuclei count vs DMSO), 5 days (fraction); higher = more cells survive
Tanzisertib + Bortezomib = compound: O[C@H]1CC[C@H](Nc2ncc3nc(Nc4c(F)cc(F)cc4F)n([C@H]4CCOC4)c3n2)CC1 [Tanzisertib] + CC(C)C[C@H](NC(=O)[C@H](Cc1ccccc1)NC(=O)c1cnccn1)B(O)O [Bortezomib] (partner 0.002 µM)
In short: (§1)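 Medians of duplicate plates are given as relative viability. That measure is the nuclei count in treated wells divided by the count in vehicle wells. Counts were taken on 4× images of lung cancer cell lines in 1536-well plates, 5 days after pin-tool dosing the day after seeding with one drug alone or a fixed anchor-drug dose plus five library-drug doses (not always all listed) in √10 steps.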

[1] = compound: C[C@@H](N)c1ccc(C(=O)Nc2ccnc3[nH]ccc23)cc1 + COc1cc2c(Oc3ccc(NC(=O)C4(C(=O)Nc5ccc(F)cc5)CC4)cc3F)ccnc2cc1OCCCN1CCOCC1 [Foretinib] (partner 0.25 µM)
In short: as §1

Tanzisertib + Luminespib = compound: O[C@H]1CC[C@H](Nc2ncc3nc(Nc4c(F)cc(F)cc4F)n([C@H]4CCOC4)c3n2)CC1 [Tanzisertib] + CCNC(=O)c1noc(-c2cc(C(C)C)c(O)cc2O)c1-c1ccc(CN2CCOCC2)cc1 [Luminespib] (partner 0.01 µM)
In short: as §1

[2] = compound: C1CNCCC1C2=CC(=NN2)C3=CC=NC=C3 + COc1cc2c(Oc3ccc(NC(=O)C4(C(=O)Nc5ccc(F)cc5)CC4)cc3F)ccnc2cc1OCCCN1CCOCC1 [Foretinib] (partner 0.25 µM)
In short: as §1

Cell Line	relative viability (Tanzisertib + Bortezomib; first compound 0.08 µM)	relative viability (Tanzisertib + Bortezomib; first compound 0.253 µM)	relative viability (Tanzisertib + Bortezomib; first compound 0.8 µM)	relative viability (Tanzisertib + Bortezomib; first compound 2.53 µM)	relative viability (Tanzisertib + Bortezomib; first compound 8 µM)	relative viability ([1]; first compound 0.04 µM)	relative viability ([1]; first compound 0.1265 µM)	relative viability ([1]; first compound 0.4 µM)	relative viability ([1]; first compound 1.265 µM)	relative viability ([1]; first compound 4 µM)	relative viability (Tanzisertib + Luminespib; first compound 0.08 µM)	relative viability (Tanzisertib + Luminespib; first compound 0.253 µM)	relative viability (Tanzisertib + Luminespib; first compound 0.8 µM)	relative viability (Tanzisertib + Luminespib; first compound 2.53 µM)	relative viability (Tanzisertib + Luminespib; first compound 8 µM)	relative viability ([2]; first compound 0.08 µM)	relative viability ([2]; first compound 0.8 µM)	relative viability ([2]; first compound 2.53 µM)	relative viability ([2]; first compound 8 µM)
SW 1573	1.09	1.09	0.946	1.15	0.712	1.06	0.964	1.19	0.93	0.849	0.294	0.24	0.18	0.187	0.339	0.679	0.967	0.901	1.03
NCI-H322M	1.25	1.21	1.32	1.14	1.18	1.29	1.19	1.29	–	1.39	0.834	0.751	0.87	0.932	0.951	0.965	1.1	1.02	1.13
ABC-1	0.292	0.346	0.268	0.356	0.228	1.25	1.12	1.34	–	0.993	0.777	0.428	0.518	0.735	0.944	1.04	1.1	1.46	1.35
NCI-H2023	1.18	1	1.06	0.855	0.371	0.965	1.14	1.4	0.988	0.766	0.966	0.762	0.826	0.628	0.696	0.789	0.803	1.16	1.11
NCI-H596	1.1	0.99	1.2	0.907	1.1	1.07	0.82	0.772	–	0.761	1.1	1.16	1.22	0.96	0.892	0.87	0.834	0.965	0.889
NCI-H2405	1.03	1.02	1.07	0.975	0.794	1.12	1.09	1.13	0.838	0.519	0.716	0.713	0.577	0.676	0.609	1.05	1.04	1.11	1.05
LCLC-103H	1.15	1.06	1.04	1.18	1.16	0.901	0.821	0.69	0.77	0.643	1	0.888	0.941	1.05	1.12	0.777	0.695	0.72	0.883
NCI-H460	1.21	1.2	1.12	1.07	0.965	0.984	1.01	1	0.986	1	0.0366	0.0372	0.0359	0.0394	0.0394	0.978	1.1	1.02	1.07
NCI-H1755	1.03	0.995	0.986	0.957	0.942	0.95	0.96	0.901	0.903	0.664	0.415	0.51	0.473	0.374	0.547	0.968	–	0.908	0.897
NCI-H1734	1.04	0.936	0.856	1.02	0.881	0.996	0.95	0.867	0.855	0.683	0.208	0.206	0.214	0.197	0.203	0.81	0.919	0.992	0.836
EPLC-272H	1.04	0.949	0.876	0.943	1.04	0.715	0.747	0.797	0.768	0.587	0.251	0.206	0.519	0.921	0.408	0.647	0.674	0.678	0.706
NCI-H2126	1.11	1.18	1.09	1.11	1.2	1.2	1.13	1.29	–	1.09	0.919	0.897	0.887	0.961	0.993	1.18	1.31	1.23	1.29
